Reference: patent US10638756B2, “Molecules having pesticidal utility, and intermediates, compositions, and processes, related thereto” (Dow AgroSciences LLC, priority 2017, dated 2020)

Tests used:
[1] = tested on: Cabbage Looper (Trichoplusia ni); assay: Bioassay on Cabbage Looper (CL), 128-well diet tray assay; format: in vivo; details: 168 h, 50 μg/cm^2 on artificial diet, second instar larvae, five to seven days, read-out: CL % Control (or Mortality) rating
Protocol: (§1) Certain molecules disclosed in this document were tested against BAW and CL using procedures described in the following examples. In the reporting of the results, the “BAW & CL Rating Table” was used (See Table Section).
Bioassays on CL were conducted using a 128-well diet tray assay. One to five second instar CL larvae were placed in each well (3 mL) of the diet tray that had been previously filled with 1 mL of artificial diet to which 50 μg/cm^2 of the test molecule (dissolved in 50 μL of 90:10 acetone-water mixture) had been applied (to each of eight wells) and then allowed to dry. Trays were covered with a clear self-adhesive cover, vented to allow gas exchange, and held at 25° C., 14:10 light-dark for five to seven days. Percent mortality was recorded for the larvae in each well; activity in the eight wells was then averaged. The results are indicated in the table entitled “Table ABC: Biological Results” (See Table Section).

[2] = tested on: Beet Armyworm (Spodoptera exigua); assay: Bioassay on Beet Armyworm (BAW), 128-well diet tray assay; format: in vivo; details: for mortality at 50 µg/cm2: Spodoptera exigua, 168 h, 50 μg/cm^2 on artificial diet, second instar larvae, five to seven days, read-out: BAW % Control (or Mortality) rating
Protocol: as §1
Bioassays on BAW were conducted using a 128-well diet tray assay. […] Trays were covered with a clear self-adhesive cover, vented to allow gas exchange, and held at 25° C., 14:10 light-dark for five to seven days. Percent mortality was recorded for the larvae in each well; activity in the eight wells was then averaged. The results are indicated in the table entitled “Table ABC: Biological Results” (See Table Section).

Work on O=C(NNc1ncccn1)c1ccc(/C(F)=C\C(c2cc(Cl)c(Cl)c(Cl)c2)C(F)(F)F)cc1C(F)(F)F (stereo not drawn) [F74, (E)-N′-(pyrimidin-2-yl)-4-(1,4,4,4-tetrafluoro-3-(3,4,5-trichlorophenyl)but-1-en-1-yl)-2-(trifluoromethyl)benzohydrazide] yielded a mortality at 50 µg/cm2 [1] of 50 to 100% and a mortality at 50 µg/cm2 [2] of 50 to 100%.

CN(NC(=O)c1ccc(/C(F)=C/C(c2cc(Cl)c(Cl)c(Cl)c2)C(F)(F)F)cc1C(F)(F)F)C1CCCC1 (stereo not drawn) [F144, (Z)—N′-Cyclopentyl-N′-methyl-4-(1,4,4,4-tetrafluoro-3-(3,4,5-trichlorophenyl)but-1-en-1-yl)-2-(trifluoromethyl)benzohydrazide] was tested, and the mortality at 50 µg/cm2 [1] was 50 to 100% and the mortality at 50 µg/cm2 [2] was 50 to 100%.

Work on CN(NC(=O)c1ccc(/C(F)=C/[C@@H](c2cc(Cl)c(Cl)c(Cl)c2)C(F)(F)F)cc1C(F)(F)F)c1ncccn1 (single isomer, unassigned) [F17] yielded a mortality at 50 µg/cm2 [1] of 50 to 100% and a mortality at 50 µg/cm2 [2] of 50 to 100%.

Compound O=C(Nn1cccc1)c1ccc(/C(F)=C/C(c2cc(Cl)c(Cl)c(Cl)c2)C(F)(F)F)cc1C(F)(F)F (stereo not drawn) [F51, (Z)—N-(1H-Pyrrol-1-yl)-4-(1,4,4,4-tetrafluoro-3-(3,4,5-trichlorophenyl)but-1-en-1-yl)-2-(trifluoromethyl)benzamide] has a mortality at 50 µg/cm2 [1] of 50 to 100% and a mortality at 50 µg/cm2 [2] of 50 to 100%.

O=C(NNc1ccccc1)c1ccc(/C(F)=C/C(c2cc(Br)c(F)c(Br)c2)C(F)(F)F)cc1C(F)(F)F (stereo not drawn) [F45, (Z)-4-(3-(3,5-dibromo-4-fluorophenyl)-1,4,4,4-tetrafluorobut-1-en-1-yl)-N′-phenyl-2-(trifluoromethyl)benzohydrazide] showed a mortality at 50 µg/cm2 [1] of 50 to 100% and a mortality at 50 µg/cm2 [2] of 50 to 100%.

Compound N#CCN(NC(=O)c1ccc(/C(F)=C/C(c2cc(Cl)c(Cl)c(Cl)c2)C(F)(F)F)cc1C(F)(F)F)c1ncccn1 (stereo not drawn) [F189, (Z)—N′-(cyanomethyl)-N′-(pyrimidin-2-yl)-4-(1,4,4,4-tetrafluoro-3-(3,4,5-trichlorophenyl)but-1-en-1-yl)-2-(trifluoromethyl)benzohydrazide] has a mortality at 50 µg/cm2 [1] of 50 to 100% and a mortality at 50 µg/cm2 [2] of 50 to 100%.

With O=C(NNc1ncccn1)c1ccc(/C(F)=C/C(c2cc(Cl)c(Cl)c(C(F)F)c2)C(F)(F)F)cc1C(F)(F)F (stereo not drawn) [F186, (Z)-4-(3-(3,4-Dichloro-5-(difluoromethyl)phenyl)-1,4,4,4-tetrafluorobut-1-en-1-yl)-N′-(pyrimidin-2-yl)-2-(trifluoromethyl)benzohydrazide] the mortality at 50 µg/cm2 [1] was 50 to 100% and the mortality at 50 µg/cm2 [2] was 50 to 100%.

For O=C(NNc1cccc(Br)n1)c1ccc(/C(F)=C/C(c2cc(Cl)c(Cl)c(Cl)c2)C(F)(F)F)cc1C(F)(F)F (stereo not drawn) [F165, (Z)—N′-(6-Bromopyridin-2-yl)-4-(1,4,4,4-tetrafluoro-3-(3,4,5-trichlorophenyl)but-1-en-1-yl)-2-(trifluoromethyl)benzohydrazide], the mortality at 50 µg/cm2 [1] was 50 to 100% and the mortality at 50 µg/cm2 [2] was 50 to 100%.

For CN(NC(=O)c1ccc(/C(F)=C/C(c2ccc(Cl)c(OC(F)(F)F)c2)C(F)(F)F)cc1C(F)(F)F)c1ccccn1 (stereo not drawn) [F60, (Z)-4-(3-(4-Chloro-3-(trifluoromethoxy)phenyl)-1,4,4,4-tetrafluorobut-1-en-1-yl)-N′-methyl-N′-(pyridin-2-yl)-2-(trifluoromethyl)benzohydrazide], the mortality at 50 µg/cm2 [1] was 50 to 100% and the mortality at 50 µg/cm2 [2] was 50 to 100%.

Work on O=C(NNc1c(Cl)cnc(C(Cl)(Cl)Cl)c1Cl)c1ccc(/C(F)=C/C(c2cc(Cl)c(Cl)c(Cl)c2)C(F)(F)F)cc1C(F)(F)F (stereo not drawn) [F69, (Z)—N′-(3,5-Dichloro-2-(trichloromethyl)-4-pyridin-4-yl)-4-(1,4,4,4-tetrafluoro-3-(3,4,5-trichlorophenyl)but-1-en-1-yl]-2-(trifluoromethyl)benzohydrazide] yielded a mortality at 50 µg/cm2 [1] of 0% and a mortality at 50 µg/cm2 [2] of 0%.

CN(NC(=O)c1ccc(/C(F)=C/C(c2cc(Cl)cc(C(F)(F)F)c2)C(F)(F)F)cc1C(F)(F)F)c1ncccn1 (stereo not drawn) [F83, (Z)-4-(3-(3-Chloro-5-(trifluoromethyl)phenyl)-1,4,4,4-tetrafluorobut-1-en-1-yl)-N′-methyl-N′-(pyrimidin-2-yl)-2-(trifluoromethyl)benzohydrazide] was tested, and the mortality at 50 µg/cm2 [1] was 50 to 100% and the mortality at 50 µg/cm2 [2] was 50 to 100%.

CSc1nccc(NNC(=O)c2ccc(/C(F)=C/C(c3cc(Cl)c(Cl)c(Cl)c3)C(F)(F)F)cc2C(F)(F)F)n1 (stereo not drawn) [F5, (Z)—N′-(2-(Methylthio)pyrimidin-4-yl)-4-(1,4,4,4-tetrafluoro-3-(3,4,5-trichlorophenyl)but-1-en-1-yl)-2-(trifluoromethyl)benzohydrazide] gave a mortality at 50 µg/cm2 [1] of 50 to 100% and a mortality at 50 µg/cm2 [2] of 50 to 100%.

Cc1nc(C)c(C)c(NNC(=O)c2ccc(/C(F)=C/C(c3cc(Cl)c(Cl)c(Cl)c3)C(F)(F)F)cc2C(F)(F)F)n1 (stereo not drawn) [F75, (Z)-4-(1,4,4,4-Tetrafluoro-3-(3,4,5-trichlorophenyl)but-1-en-1-yl)-2-(trifluoromethyl)-N′-(2,5,6-trimethylpyrimidin-4-yl)benzohydrazide] showed a mortality at 50 µg/cm2 [1] of 50 to 100% and a mortality at 50 µg/cm2 [2] of 50 to 100%.

In the case of O=C(NNc1ncccn1)c1ccc(/C(F)=C/C(c2cc(Cl)cc(OC(F)(F)F)c2)C(F)(F)F)cc1C(F)(F)F (stereo not drawn) [F106, (Z)-4-(3-(3-Chloro-5-(trifluoromethoxy)phenyl)-1,4,4,4-tetrafluorobut-1-en-1-yl)-N′-(pyrimidin-2-yl)-2-(trifluoromethyl)benzohydrazide], the mortality at 50 µg/cm2 [1] is reported as 50 to 100% and the mortality at 50 µg/cm2 [2] is reported as 50 to 100%.

Compound C#CCN(NC(=O)c1ccc(/C(F)=C/C(c2cc(Cl)c(Cl)c(Cl)c2)C(F)(F)F)cc1C(F)(F)F)c1ncccn1 (stereo not drawn) [F150, (Z)—N′-(Prop-2-yn-1-yl)-N′-(pyrimidin-2-yl)-4-(1,4,4,4-tetrafluoro-3-(3,4,5-trichlorophenyl)but-1-en-1-yl)-2-(trifluoromethyl)benzohydrazide] has a mortality at 50 µg/cm2 [1] of 50 to 100% and a mortality at 50 µg/cm2 [2] of 50 to 100%.

O=C(NNc1ccc(Cl)cn1)c1ccc(/C(F)=C/C(c2cc(Cl)c(Cl)c(Cl)c2)C(F)(F)F)cc1C(F)(F)F (stereo not drawn) [F93, (Z)—N′-(5-Chloropyridin-2-yl)-4-(1,4,4,4-tetrafluoro-3-(3,4,5-trichlorophenyl)but-1-en-1-yl)-2-(trifluoromethyl)benzohydrazide] showed a mortality at 50 µg/cm2 [1] of 50 to 100% and a mortality at 50 µg/cm2 [2] of 50 to 100%.

CN(NC(=O)c1ccc(/C(F)=C/C(c2cc(Cl)c(Cl)c(Cl)c2)C(F)(F)F)cc1C(F)(F)F)c1ccccn1 (stereo not drawn) [F59, (Z)—N′-Methyl-N′-(pyridin-2-yl)-4-(1,4,4,4-tetrafluoro-3-(3,4,5-trichloro-phenyl)but-1-en-1-yl)-2-(trifluoromethyl)benzohydrazide] gave a mortality at 50 µg/cm2 [1] of 50 to 100% and a mortality at 50 µg/cm2 [2] of 50 to 100%.

In the case of O=C(NNc1c(Cl)c(Cl)nc(Cl)c1Cl)c1ccc(/C(F)=C/C(c2cc(Cl)c(Cl)c(Cl)c2)C(F)(F)F)cc1C(F)(F)F (stereo not drawn) [F131, (Z)—N′-(Perchloropyridin-4-yl)-4-(1,4,4,4-tetrafluoro-3-(3,4,5-trichlorophenyl)but-1-en-1-yl)-2-(trifluoromethyl)benzohydrazide], the mortality at 50 µg/cm2 [1] is reported as 0% and the mortality at 50 µg/cm2 [2] is reported as 0%.

In the case of O=C(NNc1ncccn1)c1ccc(/C(F)=C/C(c2cc(Cl)c(Cl)c(Cl)c2)C(F)(F)F)cc1 (stereo not drawn) [1A, (Z)—N′-(Pyrimidin-2-yl)-4-(1,4,4,4-tetrafluoro-3-(3,4,5-trichlorophenyl)but-1-en-1-yl)benzohydrazide], the “BAW (Table CD-1)” value ([2]; 0.05 μg/cm^2) is reported as 0, the “BAW (Table CD-1)” value ([2]; 5.0 μg/cm^2) is reported as 25 and the “BAW (Table CD-1)” value ([2]; 50 μg/cm^2) is reported as 100.
